Test results from US20150353495A1 (PORTOLA PHARMACEUTICALS, INC., priority 2010, published 2015).
pIC50: −log10 of the molar value.

Key:
JAK1 = biological target: T1, JAK1 (Homo sapiens, UniProt P23458); experiment: Z'-LYTE kinase assay JAK1; assay type: biochemical
T1 construct: 5 μl of catalytic domain recombinant Kinase enzyme+Tyr peptide substrate (Invitrogen, CA); purchased Invitrogen
Procedure, shortened: (§1)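 In duplicate wells, each test molecule (1% final DMSO) is incubated with recombinant kinase catalytic domain, Tyr6 peptide substrate and ATP for one hour at room temperature; a site-specific protease is then added for another hour before fluorescence reading.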

[1] = test system: JAK1/3 signaling to STAT6 in Ramos B cells; experiment: IL4 stimulation of JAK1/3 signaling to STAT6 in Ramos B cells (pSTAT6 Y641, FACS); assay type: cell-based; conditions: Homo sapiens; for inhibition at 0.2 µM: 0.2 uM compound, read-out: IL-4/STAT6 in Ramos Percent Inhibition at 0.2 uM; for inhibition at 1 µM: 1.0 uM compound, read-out: IL-4/STAT6 in Ramos Percent Inhibition at 1.0 uM
Procedure, shortened: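 Phospho-STAT6 Y641 was measured by FACS using a PE-labelled antibody after fixation (2% paraformaldehyde) and methanol permeabilization. Before this, Ramos cells were exposed to compound for 1 h, then to 15 ng IL4 for 15 min.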

TYK2 = biological target: T2, TYK2 (Homo sapiens, UniProt P29597); experiment: Z'-LYTE kinase assay TYK2; assay type: biochemical
T2 construct: 5 μl of catalytic domain recombinant Kinase enzyme+Tyr peptide substrate (Invitrogen, CA); purchased Invitrogen
T2 sequence (P29597 897-1176 limits assumed): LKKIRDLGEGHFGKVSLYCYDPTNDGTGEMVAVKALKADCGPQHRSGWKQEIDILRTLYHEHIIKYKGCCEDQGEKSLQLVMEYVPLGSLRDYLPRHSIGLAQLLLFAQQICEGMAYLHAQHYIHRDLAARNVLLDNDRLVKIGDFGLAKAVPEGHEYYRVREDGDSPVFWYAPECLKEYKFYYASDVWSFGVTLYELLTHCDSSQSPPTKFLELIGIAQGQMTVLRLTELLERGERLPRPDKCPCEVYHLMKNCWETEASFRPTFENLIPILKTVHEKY
Procedure, shortened: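 IC50 derived by 4-parameter logistic fit of percent substrate phosphorylation relative to uninhibited wells. Tyr6 peptide phosphorylated by recombinant TYK2 catalytic domain for 1 h at room temperature (1% DMSO), cleaved by development protease 1 h, FRET emission ratio 445/520 nm.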

JAK2 = biological target: T3, JAK2 (Homo sapiens, UniProt O60674); experiment: Z'-LYTE kinase assay JAK2; assay type: biochemical
T3 construct: 5 μl of catalytic domain recombinant Kinase enzyme+Tyr peptide substrate (Invitrogen, CA); purchased Invitrogen
Procedure, shortened: as §1

T3 sequence (O60674 849-1124 limits assumed): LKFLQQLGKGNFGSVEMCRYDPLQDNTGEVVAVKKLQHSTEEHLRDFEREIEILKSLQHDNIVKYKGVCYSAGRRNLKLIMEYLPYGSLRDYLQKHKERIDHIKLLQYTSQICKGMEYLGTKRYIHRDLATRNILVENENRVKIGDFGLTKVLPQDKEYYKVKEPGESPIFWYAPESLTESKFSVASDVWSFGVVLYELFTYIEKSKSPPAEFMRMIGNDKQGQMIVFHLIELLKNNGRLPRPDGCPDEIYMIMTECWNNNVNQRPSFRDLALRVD
T1 sequence (P23458 875-1153 limits assumed): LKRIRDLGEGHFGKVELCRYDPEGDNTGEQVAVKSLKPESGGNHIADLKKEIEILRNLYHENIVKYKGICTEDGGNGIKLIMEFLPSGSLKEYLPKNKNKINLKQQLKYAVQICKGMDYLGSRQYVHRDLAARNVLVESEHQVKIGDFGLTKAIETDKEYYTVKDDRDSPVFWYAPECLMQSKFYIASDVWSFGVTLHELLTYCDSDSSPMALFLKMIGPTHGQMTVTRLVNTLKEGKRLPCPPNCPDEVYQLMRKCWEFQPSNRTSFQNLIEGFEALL

| SMILES | pIC50 (JAK1) | inhibition at 0.2 µM [1] | inhibition at 1 µM [1] | pIC50 (TYK2) | pIC50 (JAK2) |
| --- | --- | --- | --- | --- | --- |
| CC(=O)N1CCN(c2ccc(Nc3cc(NC4CC4)c(C(N)=O)cn3)cc2)CC1 [Example 2] | 6.00 to 7.00 | 29% | 77% | 6.00 to 7.00 | 6.00 to 7.00 |
| CC(=O)N1CCN(c2ccc(Nc3cc(NCc4cccc(F)c4)c(C(N)=O)cn3)cc2)CC1 [Example 229] | 6.00 to 7.00 | 38% | 67% | 6.00 to 7.00 | 7.00 to 8.00 |
